EC50 and Emax data for 28 compounds are collected here from US20260076975A1, “TPK AGONIST AND METHOD FOR USING SAME TO TREAT NEURODEGENERATIVE DISEASES” (SHANGHAI RAISING PHARMACEUTICAL CO., LTD., priority 2022, published 2026).

The test has as its target TPK enzyme (Homo sapiens, UniProt Q9H3S4). The test is described as follows: TPK enzyme activity test (TDP formation from thiamine and ATP, HPLC detection). It counts as biochemical. On the procedure:
The purpose of this example was to test the promoting effect of compounds on TPK enzyme activity and evaluate the in vitro activity of the compounds based on EC50 and Emax.
1.1) The constant-temperature water-bath shaker was pre-heated half an hour in advance at a pre-heating temperature of 37° C.
1.2) The stock solution of the compound to be tested was taken out, allowed to thaw at room temperature, and then diluted to the required concentration.
1.3) The required reagents were placed on ice to thaw.
2.1) For each reaction system, TPK enzyme solution, Tris-HCl buffer solution, and ATP solution were added. The concentration of ATP used was 1-500 mM. The above three solutions were formulated into a homogeneous mixture.
2.2) The mixture of the above three solutions was dispensed into centrifuge tubes. Then, the compound at the required concentration was added to each centrifuge tube. Finally, thiamine solution (1-100 μM) was added. After the addition of the above system was completed, the centrifuge tubes were tightly capped, inserted into a floating board, and placed in the constant-temperature water-bath shaker that had been pre-heated to 37° C. for incubation for 0.5-2.0 hours.
2.3) After the incubation was completed, perchloric acid stop solution was added and mixed well. Samples were taken into 1.5 mL centrifuge tubes and stored at −20° C.
3.1) The samples stored at −20° C. were taken out, thawed at room temperature, and then subjected to derivatization treatment. The samples were placed in centrifuge tubes, a potassium ferricyanide derivatization reagent was added, and finally phosphoric acid stop solution was added to stop the reaction.
3.2) The derivatized samples were placed in sample vials for liquid chromatography analysis, and the contents of TDP/thiamine were detected by high performance liquid chromatography. TKP enzyme activity=TDP (nM)/mg protein/min.
The effects of the compounds of the present invention on TPK enzyme activity at different concentrations were determined according to the above procedures.

Where [1] appears, read: promoting effect on TPK enzyme activity.
[2] abbreviates: promoting effect on TPK enzyme activity, calculated with the effect of DMSO on TPK enzyme activity as 100%, read-out: Emax.
Setting [3] is: promoting effect on TPK enzyme activity, calculated with the effect of DMSO on TPK enzyme activity as 100%.

Where two headings read alike, the source gives them in different places.

Chain of TPK enzyme (Q9H3S4 whole entry): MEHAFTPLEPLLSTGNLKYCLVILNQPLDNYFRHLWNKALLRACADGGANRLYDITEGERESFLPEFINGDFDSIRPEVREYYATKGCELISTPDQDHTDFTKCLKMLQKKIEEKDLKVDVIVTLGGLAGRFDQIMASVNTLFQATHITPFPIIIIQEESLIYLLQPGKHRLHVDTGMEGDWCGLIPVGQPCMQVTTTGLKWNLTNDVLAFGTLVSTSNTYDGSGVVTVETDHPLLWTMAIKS

Turning to `O=C(CN1CCC(c2c[nH]c3ccccc23)CC1)NC(=O)NC1CC1` [Compound 138], under setting [1], a half-maximal response (EC50) required 1010 nM. Besides, under setting [2], the Emax (in general, the size of the effect at its maximum, as opposed to the concentration needed) was 180%.
On the same counts, the results for `Cc1cc2c(s1)Nc1ccccc1N=C2N1CCN(CCCCOc2ccc3c(c2)NC(=O)CC3)CC1` [Compound 42, 7-(4-(4-(2-methyl-10H-benzo[b]thieno[2,3-e][1,4]diazepin-4-yl)piperazin-1-yl)butoxy)-3,4-dihydroquinolin-2(1H)-one] are 1000 nM and 170%.
Take `O=c1ccc2ccc(OCCN3CCN(c4nc5ccccc5s4)CC3)cc2[nH]1` [Compound 35, 7-(2-(4-(benzothiazol-2-yl)piperazin-1-yl)ethoxy)quinolin-2(1H)-one]: the EC50 (in general, the concentration at which the effect is half-maximal) under setting [1] worked out at 1370 nM. Under setting [2], the Emax is 163%.
`CC(C)(C)NC(=O)NC(=O)CN1CCC(c2c[nH]c3ccccc23)CC1` [Compound 137] returned a concentration giving a half-maximal response (EC50) under setting [1] of 110000 nM. For the same compound, the Emax under setting [2] was 146%.
In turn, `O=C1CCc2ccc(OCCCCCN3CCN(c4cccc(Cl)c4Cl)CC3)cc2N1` [Compound 4, 7-((5-(4-(2,3-dichlorophenyl)piperazin-1-yl)pentyl)oxy)-3,4-dihydroquinolin-2(1H)-one] registered a concentration giving a half-maximal response (EC50) under setting [1] of 1040 nM. For the same compound, the Emax under setting [2] was 194%.
For the compound `CNc1cc(NC(=O)CCN2CCN(c3cccc(Cl)c3Cl)CC2)ccc1OC` [Compound 50, 3-(4-(2,3-dichlorophenyl)piperazin-1-yl)-N-(4-methoxy-3-(methylamino)phenyl)propanamide], under setting [2], the Emax was 128%.
`O=C1NCCc2ccc(OCCCCN3CCN(c4cccc(Cl)c4Cl)CC3)cc21` [Compound 22]: under setting [1], the EC50 was found to be 1190 nM. Also, under setting [2], the maximum response (Emax) was 167%.
On the same counts, the results for `Cc1ccc2c(n1)N(CCC(=O)NCCN1CCN(c3cc(Cl)ccc3C)CC1)CCO2` [Compound 76, N-(2-(4-(5-chloro-2-methylphenyl)piperazin-1-yl)ethyl)-3-(6-methyl-2,3-dihydro-4H-pyrido[3,2-b][1,4]oxazin-4-yl)propanamide] are 3460 nM and 147%.
Taken in the same sequence, the figures for `O=C1CCc2ccc(OCC(=O)NC3CCC(c4cccc(Cl)c4Cl)CC3)cc2N1` (centres unmarked) [Compound 21, N-(4-(2,3-dichlorophenyl)cyclohexyl)-2-((2-oxo-1,2,3,4-tetrahydroquinolin-7-yl)oxy)acetamide] were 1060 nM and 166%.
On to `O=C1COc2ccc(C(=O)CSCCSCC(=O)c3ccc4c(c3)NC(=O)CO4)cc2N1` [Compound 155], for which, under setting [2], the Emax was 125%.
Same read-out and setting: as for `CN(CCOCc1cccc(Cl)c1Cl)CCOc1ccc2c(c1)NC(=O)CC2` [Compound 98, 7-(2-((2-((2,3-dichlorobenzyl)oxy)ethyl)(methyl)amino)ethoxy)-3,4-dihydroquinolin-2(1H)-one], the figure is 139%.
As for `COc1ccc(C(=O)NCCCCC(=O)N2CCN(c3cccc(Cl)c3Cl)CC2)cc1OC` [Compound 171, N-(5-(4-(2,3-dichlorophenyl)piperazin-1-yl)-5-oxopentyl)-3,4-dimethoxybenzamide], the Emax came out at 127%.
`COc1ccc(/C=C/CC(=O)N2CCN(c3cccc(Cl)c3Cl)CC2)cc1OC` [Compound 59, (E)-1-(4-(2,3-dichlorophenyl)piperazin-1-yl)-4-(3,4-dimethoxyphenyl)but-3-en-1-one]: the Emax was determined as 206%. The midpoint of the response under setting [1], the EC50, lay at 1220 nM.
Taken in the same sequence, the figures for `COc1ccc(C(=O)NCCC(=O)N2CCN(c3cccc(Cl)c3Cl)CC2)cc1OC` [Compound 169, N-(3-(4-(2,3-dichlorophenyl)piperazin-1-yl)-3-oxopropyl)-3,4-dimethoxybenzamide] were 148% and 7230 nM.
With `Cc1ccc(Cl)cc1N1CCN(CCNC(=O)CC2Oc3ccccc3NC2=O)CC1` (centres unmarked) [Compound 84], the midpoint of the response under setting [1], the EC50, lay at 3860 nM. Besides, under setting [3], the maximum response (Emax) is 154.70%.
For `C[C@@H]1C[C@@H](COc2ccc3c(c2)NC(=O)CC3)CN(CC[C@@H](N)c2cccc(Cl)c2Cl)C1` [Compound 135, 7-(((3R,5R)-1-((R)-3-amino-3-(2,3-dichlorophenyl)propyl)-5-methylpiperidin-3-yl)methoxy)-3,4-dihydroquinolin-2(1H)-one], the maximal effect (Emax) under setting [2] is 133%.
The same measure, in the same setting: to `O=C(/C=C/c1cc(O)c(O)c(O)c1)N1CCN(c2cccc(Cl)c2Cl)CC1` [Compound 55, (E)-1-(4-(2,3-dichlorophenyl)piperazin-1-yl)-3-(3,4,5-trihydroxyphenyl)prop-2-en-1-one] belongs 134%.
As to `Clc1cccc(N2CCN(CCCCOc3ccc4ncsc4c3)CC2)c1Cl` [Compound 29, 6-(4-(4-(2,3-dichlorophenyl)piperazin-1-yl)butoxy)benzo[d]thiazole], under setting [1], the half-maximal effective concentration (EC50) was 2280 nM. Further, the maximal response (Emax) under setting [2] was 191%.
As for `Cc1cc2c(s1)Nc1ccccc1N=C2N1CCN(CCCOc2ccc3c(c2)NC(=O)CC3)CC1` [Compound 40, 7-(3-(4-(2-methyl-10H-benzo[b]thieno[2,3-e][1,4]diazepin-4-yl)piperazin-1-yl)propoxy)-3,4-dihydroquinolin-2(1H)-one], the Emax under setting [2] is 122%.
For `COc1ccc(/C=C/CN2CCN(c3cccc(Cl)c3Cl)CC2)cc1OC` [Compound 60, (E)-1-(2,3-dichlorophenyl)-4-(3-(3,4-dimethoxyphenyl)allyl)piperazine], under setting [1], a half-maximal effect (EC50) was put at 1280 nM. The Emax under setting [2] is 234%.
In turn, `Cc1ccc2c(n1)N(CCCCCN1CCN(c3cc(Cl)ccc3C)CC1)CCO2` [Compound 77, 4-(5-(4-(5-chloro-2-methylphenyl)piperazin-1-yl)pentyl)-6-methyl-3,4-dihydro-2H-pyrido[3,2-b][1,4]oxazine] gave a maximal effect (Emax) of 146%.
Consider `O=C1NCCN1CCN1CCC(c2cn(-c3ccc(F)cc3)c3ccc(Cl)cc23)CC1` [Compound 136], for which, under setting [1], the midpoint of the response, the EC50, lay at 2790 nM. The Emax under setting [2] was 137%.
As for `Cc1ccc(Cl)cc1N1CCN(CCNC(=O)CC2Oc3ccccc3NC2=O)CC1` (centres unmarked) [Compound 91], under setting [1], the EC50 was 25800 nM. The maximal effect (Emax) under setting [3] is 200.91%.
Consider `COc1ccc(/C=C/C(=O)N2CCN(c3nc4ccccc4s3)CC2)cc1OC` [Compound 74, (E)-1-(4-(benzo[d]thiazol-2-yl)piperazin-1-yl)-3-(3,4-dimethoxyphenyl)prop-2-en-1-one], for which, under setting [1], a half-maximal response (EC50) required 12100 nM. Further, the maximal effect (Emax) under setting [2] was 182%.
In the case of `Cc1ccc(Cl)cc1N1CCN(CCCNC(=O)C2COc3ccccc3C2)CC1` (centres unmarked) [Compound 149], the Emax under setting [2] is 182%.
In the case of `O=C1CCc2ccc(OCCCCCN3CCN(c4cccc(C(F)(F)F)c4)CC3)cc2N1` [Compound 7, 7-((5-(4-(3-(trifluoromethyl)phenyl)piperazin-1-yl)pentyl)oxy)-3,4-dihydroquinolin-2(1H)-one], under setting [1], the EC50 came to 1180 nM. For the same compound, the maximal response (Emax) under setting [2] was 224%.
On to `O=C1CCc2ccc(OCCNCCC3CC3c3cccc(Cl)c3Cl)cc2N1` (centres unmarked) [Compound 102, 7-(2-((2-(2-(2,3-dichlorophenyl)cyclopropyl)ethyl)amino)ethoxy)-3,4-dihydroquinolin-2(1H)-one], for which, under setting [1], the concentration for a half-maximal effect (EC50) was found to be 12400 nM. Also, the Emax under setting [2] is 170%.
On the same counts, the results for `COc1ccc(NC(=O)CN2CCN(c3cccc(Cl)c3Cl)CC2)cc1N` [Compound 47, N-(3-amino-4-methoxyphenyl)-2-(4-(2,3-dichlorophenyl)piperazin-1-yl)acetamide] are 4650 nM and 199%.
